Measurements from patent US20110237677A1, “Inhibitors” (The University of Nottingham, priority 2008, published 2011).

Key:
[1] = system: human myometrial tissue; experiment: Isometric tension recording, oxytocin-induced contractions of myometrial strips; assay type: cell-based; settings: for EC50: Homo sapiens, inhibition of contractions stimulated with 10^−10M oxytocin, pooled experiments, cumulative additions, tissue 24 hours after elective caesarean; for effect on oxytocin-induced contractions: dose-dependent, 10^−10M oxytocin; for oxytocin-induced contractions after removal of the inhibitor by washing: washing with physiological salt solution, re-stimulation with oxytocin
Description: (§1) Longitudinal myometrial strips were mounted in an organ bath and contractile activity recorded as a measure of tensile force as previously described (Chanrachakul, Broughton-Pipkin et al., Am J Obstet Gynecol 192(2): 458-63, 2005). Myometrial contractions were initially stimulated by addition of oxytocin, bradykinin or phenylephrine (Sigma-Aldrich; 10^−10 mol/L, 10^−8 mol/L, 10^−8 mol/L respectively). Once rhythmic contractions had been achieved cumulative additions of cystamine (Sigma-Aldrich; 10^−8 to 10^−2 mol/L), mono-dansylcadaverine (MDC) (Sigma-Aldrich; 10^−8 to 10^−4 mol/L), cysteamine (Sigma-Aldrich; 10^−9 to 10^−2 mol/L), putrescine (Sigma-Aldrich; 10^−8 to 10^−4 mol/L) were added at 25 minute intervals. Contractile activity was determine by activity integral measured from 20 minutes time periods for each drug addition and analysed along with time-matched control myometrial strips under the same conditions but with vehicle additions (physiological salt solution).

[2] = system: Myometrial smooth muscle cells; experiment: Calcium mobilisation assay, oxytocin stimulated; assay type: cell-based, human; settings: for effect on maximal calcium mobilisation: incubation with 10^−6M inhibitor, oxytocin stimulated; for Emax, maximal calcium mobilisation on oxytocin stimulation: pre-incubation for 10 minutes with 10^−6M inhibitor, FlexStation fluorescence
Experimental: Myometrial smooth muscle cells were grown in DMEM (Dulbecco's Modified Eagle Medium; Sigma-Aldrich) supplemented with 10% fetal calf serum, L-glutamine and 0.2% pen/strep at 37° C. 5% CO2, following dissociation in 2 mg/ml collagenase (Sigma-Aldrich). Once confluent cells were plated on black-walled flat-bottomed sterile 96-well plates (Costar) at a concentration of 10^5 cells/ml and in the same media makeup and again grown to confluence. Once confluent, cells were incubated in 100 μl media/well containing 2.5 mM probenecid (Sigma-Aldrich), 2.3 μM Fluo-4 (invitrogen) and 0.023% pluronic acid (Invitrogen) for one hour in the dark at 37° C. 5% CO2. Cells were then washed twice with phosphate buffered saline and finally incubated in 100 μl/well PSS (Chanrachakul, Broughton-Pipkin et al., Am J Obstet Gynecol 192(2): 458-63, 2005) containing 2.5 mM probenecid with or without 10^−6 mol/L cystamine, MDC or cysteamine for 10 minutes. Fluorescent readout was then recorded on FlexStation ([…]) over a 200 second period with oxytocin addition at 15 seconds (10^−11 to 10^−5 mol/L) and ionomycin, to measure maximal potential response, at 150 seconds (10^−6 mol/L; Sigma-Aldrich).

[3] = system: myometrial strips; experiment: Isometric tension recording, spontaneous contractions of myometrial strips; assay type: cell-based, human; settings: 2 g tension, organ bath; dose-dependent
Experimental: FIG. 9 Diagrammatic representations showing that spontaneous contractions in myometrial strips are inhibited by cystamine (n=4), cysteamine (n=3) and MDC (n=2) in a dose-dependent manner. Control strips are shown with unbroken line (n=2). Tissue is used 24 hours following elective caesarean section and contractions are allowed to spontaneously initiate under 2 g tension and in a temperature controlled and oxygenated organ bath.
as §1

[4] = system: myometrial strips; experiment: Isometric tension recording, bradykinin-induced contractions of myometrial strips; assay type: cell-based, human; settings: bradykinin 10^−8M; compared to control strips
Description: as §1

[5] = system: myometrial strips; experiment: Isometric tension recording, phenylephrine-induced contractions of myometrial strips; assay type: cell-based, human; settings: phenylephrine 10^−8M; compared to control strips
Description: as §1

| Compound | EC50 [1] [µM] | effect on oxytocin-induced contractions [1] | effect on maximal calcium mobilisation [2] | Emax, maximal calcium mobilisation on oxytocin stimulation [2] | oxytocin-induced contractions after removal of the inhibitor by washing [1] | effect on spontaneous contractions [3] | contractility, % of untreated control myometrium ([1]; MDC 10^−4M, contractions stimulated with 10^−10M oxytocin) | effect on bradykinin induced contractions [4] | effect on phenylephrine induced contractions [5] |
| --- | --- | --- | --- | --- | --- | --- | --- | --- | --- |
| NCCCCN [putrescine] | 56.6 | inhibited | – | – | – | – | – | – | – |
| NCCS [cysteamine] | 1.63 | inhibited | significantly reduced | 98.95 | began to return to control levels | inhibited | – | – | – |
| CN(C)c1cccc2c(S(=O)(=O)NCCCCCN)cccc12 [MDC, Monodansylcadaverine] | 22 | inhibited | significantly reduced | 81.45 | return to control levels | inhibited | 17.8%±6.2 | inhibited in a dose dependent manner | inhibited in a dose dependent manner |
| NCCSSCCN [cystamine] | 1310 | inhibited | significantly reduced | 87.67 | return to control levels | inhibited | – | inhibited in a dose dependent manner | inhibited in a dose dependent manner |
